# Laboratory results from article PMC9351623 (Chem, 2022).
# How the values were obtained:
# TrxR1 [1] = target: T1, TrxR1 (Homo sapiens, UniProt Q16881); assay: Cellular quantitative HTS; format: cell-based; conditions: for activity in the cellular RX1 screen: hits classed up to 20 μM; for pIC50 comparison between the two vinylsulfones: despite ca. 1.1 LogP difference
# T1 sequence (Q16881 1-499 isoform Q16881-5): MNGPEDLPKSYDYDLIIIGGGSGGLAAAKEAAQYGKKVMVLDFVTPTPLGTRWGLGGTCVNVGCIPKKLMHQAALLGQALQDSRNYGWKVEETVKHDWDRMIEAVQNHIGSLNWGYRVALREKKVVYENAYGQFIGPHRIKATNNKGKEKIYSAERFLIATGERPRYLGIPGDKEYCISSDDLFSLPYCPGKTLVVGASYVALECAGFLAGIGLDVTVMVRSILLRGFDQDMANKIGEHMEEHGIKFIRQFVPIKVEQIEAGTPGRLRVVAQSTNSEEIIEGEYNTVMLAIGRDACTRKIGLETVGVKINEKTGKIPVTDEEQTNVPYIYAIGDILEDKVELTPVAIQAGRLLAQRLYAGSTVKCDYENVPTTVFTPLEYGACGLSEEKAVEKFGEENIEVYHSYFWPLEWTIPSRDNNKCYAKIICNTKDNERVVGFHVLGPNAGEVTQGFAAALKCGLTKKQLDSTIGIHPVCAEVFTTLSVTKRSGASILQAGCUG
# TrxR1 [2] = target: T1, TrxR1; conditions: cited from earlier work
# TrxR = target: T2, TrxR (Homo sapiens, UniProt Q16881); assay: Cellular probe signal after chemical inhibition of TrxR; format: cell-based
# T2 sequence (Q16881 1-499 isoform Q16881-5): T1 sequence (Q16881 1-499 isoform Q16881-5)
smiles,measurement,setting,value
CN(N=O)c1cc(O)ccc1O [Dephostatin],potency loss in cells (ratio of cell-free to cellular potency),TrxR1 [1]; cellular RX1 qHTS versus cell-free qHTS of ref 67,> 10 fold
C=CCN1CCc2c(cc(O)c(O)c2Cl)C(c2ccccc2)C1 (centres unmarked) [chloro-APB],activity in the cellular RX1 screen,TrxR1 [1],active
same,activity in the enzymatic (cell-free) TrxR screen,TrxR1 [2],inactivity
OC[C@H]1O[C@H]([S-])[C@H](O)[C@@H](O)[C@@H]1O.[Au+] [aurothioglucose],pIC50 (potency) lower than its ester prodrug auranofin,TrxR1 [1],10 fold
Oc1ccc2ccccc2c1SSc1c(O)ccc2ccccc12 [IPA-3],activity in the cellular RX1 screen,TrxR1 [1],active
same,activity in the enzymatic (cell-free) TrxR screen,TrxR1 [2],inactivity
O=C1CSC(=S)N1 [rhodanine],apparent potency relative to the reference inhibitor TRi-1,TrxR1 [1],≤ 3%
Cc1ccc(S(=O)(=O)/C=C/C#N)cc1 [BAY 11–7082],pIC50 comparison between the two vinylsulfones,TrxR1 [1],no change
COc1ccc([N+](=O)[O-])c(S(=O)(=O)c2ccc(Cl)cc2)n1 [TRi-1],effect of TrxR inhibitor on cellular RX1 signal,TrxR,efficiently suppressed
COC[C@H]1OC(=O)c2coc3c2[C@@]1(C)C1=C(C3=O)[C@@H]2CCC(=O)[C@@]2(C)C[C@H]1OC(C)=O [wortmannin],activity in the cellular RX1 screen,TrxR1 [1],inactive
same,activity in the enzymatic (cell-free) TrxR screen,TrxR1 [2],activity
CC(C)(C)c1ccc(S(=O)(=O)/C=C/C#N)cc1 [BAY 11–7085],pIC50 comparison between the two vinylsulfones,TrxR1 [1],no change
O=c1c(O)c(-c2cc(O)c(O)c(O)c2)oc2cc(O)cc(O)c12 [myricetin],apparent potency relative to the reference inhibitor TRi-1,TrxR1 [1],≤ 3%
CC(=O)c1c(O)c(C)c(O)c(Cc2c(O)c3c(c(C(=O)/C=C/c4ccccc4)c2O)OC(C)(C)C=C3)c1O [rottlerin],apparent potency relative to the reference inhibitor TRi-1,TrxR1 [1],≤ 3%
